# Experimental data reported in publication PMC7366380, “Discovery of a Potent and Selective Covalent Inhibitor and Activity-Based Probe for the Deubiquitylating Enzyme UCHL1, with Antifibrotic Activity” (Journal of the American Chemical Society, 2020).
# Where “and” joins values, the source holds several entries; their conditions need not be identical. Equal entries are not always repeated.
# What was measured:
# Test in all cases: In-cell proteome-wide competitive ABPP, HEK293: other DUBs and proteins
# [1] = target: DUBs and other proteins in HEK293 cells (Homo sapiens, UniProt Q6P2Q9); conditions: replicates A-C; for Log2 reporter intensity values: PRPF8: DMSO substract (FC); for Log2 reporter intensity values: PRPF8, DMSO subtracted
# [2] = target: T1, DUBs and other proteins in HEK293 cells (Homo sapiens, UniProt Q9Y4E8); conditions: replicates A-C; for Log2 reporter intensity values: USP15: DMSO substract (FC); for Log2 reporter intensity values: USP15, DMSO subtracted
# T1 sequence (Q9Y4E8 1-981): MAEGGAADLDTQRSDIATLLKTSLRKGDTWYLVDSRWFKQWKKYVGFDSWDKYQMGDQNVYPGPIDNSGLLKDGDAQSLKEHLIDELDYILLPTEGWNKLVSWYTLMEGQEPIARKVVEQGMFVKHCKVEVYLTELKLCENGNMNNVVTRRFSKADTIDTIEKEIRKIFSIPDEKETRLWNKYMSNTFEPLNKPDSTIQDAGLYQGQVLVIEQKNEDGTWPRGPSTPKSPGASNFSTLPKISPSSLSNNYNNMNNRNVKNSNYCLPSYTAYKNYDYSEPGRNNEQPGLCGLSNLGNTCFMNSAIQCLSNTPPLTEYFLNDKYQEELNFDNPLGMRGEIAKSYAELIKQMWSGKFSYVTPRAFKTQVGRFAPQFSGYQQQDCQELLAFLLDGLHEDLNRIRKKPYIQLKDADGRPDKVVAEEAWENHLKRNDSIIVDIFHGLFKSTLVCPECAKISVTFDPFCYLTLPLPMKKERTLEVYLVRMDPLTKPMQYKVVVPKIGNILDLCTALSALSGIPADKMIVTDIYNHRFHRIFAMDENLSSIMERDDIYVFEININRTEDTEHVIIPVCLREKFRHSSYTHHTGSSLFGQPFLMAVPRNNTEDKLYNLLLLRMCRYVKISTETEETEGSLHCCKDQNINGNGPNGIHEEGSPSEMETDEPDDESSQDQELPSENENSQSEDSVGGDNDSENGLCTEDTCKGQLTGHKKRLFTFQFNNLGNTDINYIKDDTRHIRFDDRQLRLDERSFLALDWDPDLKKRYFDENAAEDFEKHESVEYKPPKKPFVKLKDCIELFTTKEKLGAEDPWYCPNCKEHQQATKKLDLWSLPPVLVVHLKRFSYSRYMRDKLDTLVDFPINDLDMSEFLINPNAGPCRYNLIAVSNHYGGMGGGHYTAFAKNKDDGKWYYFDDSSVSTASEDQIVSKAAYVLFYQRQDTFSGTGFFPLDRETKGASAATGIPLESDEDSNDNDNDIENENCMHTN
# [3] = target: T2, DUBs and other proteins in HEK293 cells (Homo sapiens, UniProt P40818); conditions: for Log2 reporter intensity values: USP8: competition with ABP 2, DMSO substract (FC), replicates A-B; for Log2 reporter intensity values: USP8, DMSO subtracted
# T2 sequence (P40818 1-1118): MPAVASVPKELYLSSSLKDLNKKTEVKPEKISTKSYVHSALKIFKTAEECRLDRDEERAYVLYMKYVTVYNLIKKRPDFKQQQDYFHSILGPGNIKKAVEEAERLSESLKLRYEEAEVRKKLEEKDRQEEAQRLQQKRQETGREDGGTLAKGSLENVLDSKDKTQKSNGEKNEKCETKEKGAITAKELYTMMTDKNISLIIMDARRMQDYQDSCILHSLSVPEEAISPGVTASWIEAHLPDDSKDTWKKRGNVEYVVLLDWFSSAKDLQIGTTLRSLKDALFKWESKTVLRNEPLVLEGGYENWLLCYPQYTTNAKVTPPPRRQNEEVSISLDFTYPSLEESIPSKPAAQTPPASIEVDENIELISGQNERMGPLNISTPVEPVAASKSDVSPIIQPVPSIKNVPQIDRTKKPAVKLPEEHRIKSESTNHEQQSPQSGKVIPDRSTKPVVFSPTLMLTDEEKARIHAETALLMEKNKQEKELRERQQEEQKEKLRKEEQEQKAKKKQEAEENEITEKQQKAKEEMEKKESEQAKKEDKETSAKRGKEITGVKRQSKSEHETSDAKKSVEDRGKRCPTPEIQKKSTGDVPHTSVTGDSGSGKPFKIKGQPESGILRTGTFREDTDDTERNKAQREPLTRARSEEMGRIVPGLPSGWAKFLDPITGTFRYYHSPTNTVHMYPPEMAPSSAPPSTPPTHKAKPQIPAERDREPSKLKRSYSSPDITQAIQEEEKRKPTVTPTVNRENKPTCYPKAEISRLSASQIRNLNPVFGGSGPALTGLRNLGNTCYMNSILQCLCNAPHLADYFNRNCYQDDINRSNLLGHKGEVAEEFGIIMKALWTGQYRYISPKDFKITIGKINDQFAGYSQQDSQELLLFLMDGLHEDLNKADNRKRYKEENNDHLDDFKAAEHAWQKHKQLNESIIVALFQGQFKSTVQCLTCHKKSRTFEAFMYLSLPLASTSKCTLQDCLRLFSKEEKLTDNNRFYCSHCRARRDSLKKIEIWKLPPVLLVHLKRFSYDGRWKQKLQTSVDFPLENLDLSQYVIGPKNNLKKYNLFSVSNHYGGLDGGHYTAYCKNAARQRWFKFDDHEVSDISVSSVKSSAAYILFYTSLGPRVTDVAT
# [4] = target: DUBs and other proteins in HEK293 cells (Homo sapiens, UniProt O00487); conditions: replicates A-C; for Log2 reporter intensity values: PSMD14: DMSO substract (FC); for Log2 reporter intensity values: PSMD14, DMSO subtracted
# [5] = target: DUBs and other proteins in HEK293 cells (Homo sapiens, UniProt Q92905); conditions: for Log2 reporter intensity values, COPS5: TMT replicates; for Log2 t-test Difference / Log2 reporter intensity values: COPS5; for Log2 reporter intensity values / Log2 reporter intensity values: COPS5: replicates A-C; for Log2 reporter intensity values: COPS5: DMSO substract (FC)
# [6] = LDN at 5 μM, competition with ABP 2
# [7] = LDN at 25 μM, competition with ABP 2
# Sequence of DUBs and other proteins in HEK293 cells (Homo sapiens, UniProt O00487) (O00487 whole entry): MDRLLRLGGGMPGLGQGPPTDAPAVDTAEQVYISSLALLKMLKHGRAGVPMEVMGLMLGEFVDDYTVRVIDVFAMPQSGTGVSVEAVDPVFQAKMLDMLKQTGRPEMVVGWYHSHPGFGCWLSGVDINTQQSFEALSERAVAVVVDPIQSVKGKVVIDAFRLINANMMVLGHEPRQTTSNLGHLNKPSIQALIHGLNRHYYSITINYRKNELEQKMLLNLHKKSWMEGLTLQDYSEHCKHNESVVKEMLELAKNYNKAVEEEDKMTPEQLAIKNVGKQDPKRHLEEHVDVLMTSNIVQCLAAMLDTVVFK
# Sequence of DUBs and other proteins in HEK293 cells (Homo sapiens, UniProt Q92905) (Q92905 whole entry): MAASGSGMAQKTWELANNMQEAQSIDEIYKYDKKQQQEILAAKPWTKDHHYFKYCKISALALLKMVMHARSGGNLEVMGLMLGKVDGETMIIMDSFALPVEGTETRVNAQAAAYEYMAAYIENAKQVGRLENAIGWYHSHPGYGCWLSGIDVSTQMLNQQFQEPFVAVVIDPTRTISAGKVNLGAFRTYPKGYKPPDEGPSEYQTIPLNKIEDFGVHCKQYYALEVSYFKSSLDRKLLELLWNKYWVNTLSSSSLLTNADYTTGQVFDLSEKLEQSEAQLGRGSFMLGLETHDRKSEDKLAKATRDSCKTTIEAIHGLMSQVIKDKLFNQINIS
compound,measurement,setting,value
CC(=O)O/N=C1\C(=O)N(Cc2cc(Cl)ccc2Cl)c2ccc(Cl)cc21 [LDN],Log2 reporter intensity values: PRPF8,[1]; [6],0.8673 and 0.9446 and 0.9404
same,Log2 reporter intensity values: PRPF8,[1]; [7],0.9445 and 0.9891 and 0.9788
same,Log2 reporter intensity values,[1]; LDN at 5 μM,-0.2054 and -0.08218 and -0.0886
same,Log2 reporter intensity values,[1]; LDN at 25 μM,-0.08236 and -0.01582 and -0.0309
same,Log2 reporter intensity values,[1]; LDN_5 μM,-0.1329 and -0.05561 and -0.05981
same,Log2 reporter intensity values,[1]; LDN_25 μM,-0.05573 and -0.01115 and -0.02143
same,Log2 reporter intensity values: USP15,[2]; [6],1.005 and 0.9596 and 1.069
same,Log2 reporter intensity values: USP15,[2]; [7],1.047 and 0.9593 and 0.9363
same,Log2 reporter intensity values,[2]; LDN at 5 μM,0.007561 and -0.05945 and 0.09653
same,Log2 reporter intensity values,[2]; LDN at 25 μM,0.06615 and -0.06 and -0.09494
same,Log2 reporter intensity values,[2]; LDN_5 μM,0.004993 and -0.04063 and 0.06894
same,Log2 reporter intensity values,[2]; LDN_25 μM,0.04666 and -0.041 and -0.06395
same,Log2 reporter intensity values: USP8,[3]; LDN at 5 μM,1.057 and 1.015
same,Log2 reporter intensity values: USP8,[3]; LDN at 25 μM,1.052 and 0.9465
same,Log2 reporter intensity values,"[3]; LDN at 5 μM, replicates A-C",0.08034 and 0.0217
same,Log2 reporter intensity values,"[3]; LDN at 25 μM, replicates A-C",0.07275 and -0.07932
same,Log2 reporter intensity values,"[3]; LDN_5 μM, replicates A-B (C NaN)",0.05482 and 0.0127
same,Log2 reporter intensity values,"[3]; LDN_25 μM, replicates A-B (C NaN)",0.04927 and -0.05595
same,Log2 reporter intensity values: PSMD14,[4]; [6],1.1 and 1.114 and 0.9966
same,Log2 reporter intensity values: PSMD14,[4]; [7],0.9804 and 1.072 and 1.068
same,Log2 reporter intensity values,[4]; LDN at 5 μM,0.1369 and 0.1555 and -0.004904
same,Log2 reporter intensity values,[4]; LDN at 25 μM,-0.02853 and 0.1005 and 0.09452
same,Log2 reporter intensity values,[4]; LDN_5 μM,0.09685 and 0.1112 and -0.006053
same,Log2 reporter intensity values,[4]; LDN_25 μM,-0.02224 and 0.06945 and 0.06505
same,"Log2 reporter intensity values, COPS5","[5]; 5 μM LDN-57444 (60 min) + 20 nM ABP 2 (10 min), All values",0.02618 and -0.0337 and -0.04942
same,"Log2 reporter intensity values, COPS5","[5]; 5 μM LDN-57444 (60 min) + 20 nM ABP 2 (10 min), DMSO subtracted",0.0843 and 0.02441 and 0.00869
same,"Log2 reporter intensity values, COPS5","[5]; 25 μM LDN-57444 (60 min) + 20 nM ABP 2 (10 min), All values",0.09342 and -0.06531 and -0.07503
same,"Log2 reporter intensity values, COPS5","[5]; 25 μM LDN-57444 (60 min) + 20 nM ABP 2 (10 min), DMSO subtracted",0.1515 and -0.007194 and -0.01692
same,Log2 t-test Difference,[5]; LDN - 5 μM,-0.1232
same,Log2 reporter intensity values,"[5]; LDN at 5 μM, DMSO subtracted",0.0843 and 0.02441 and 0.00869
same,Log2 reporter intensity values,"[5]; LDN at 25 μM, DMSO subtracted",0.1515 and -0.007194 and -0.01692
same,Log2 reporter intensity values,"[5]; LDN_5 μM, DMSO subtracted",0.06009 and 0.01698 and 0.005959
same,Log2 reporter intensity values,"[5]; LDN_25 μM, DMSO subtracted",0.1107 and -0.005057 and -0.01174
same,Log2 reporter intensity values: COPS5,[5]; [6],1.06 and 1.017 and 1.006
same,Log2 reporter intensity values: COPS5,[5]; [7],1.111 and 0.995 and 0.9883
C#Cc1cnc2[nH]cc(-c3cccc4c3CCN4C(=O)[C@@H]3CCCN3C#N)c2c1 [Compound 2],Log2 reporter intensity values: PRPF8,[1]; 20 nM ABP 2 alone,0.8057 and 0.8767 and 0.8316
same,Log2 reporter intensity values,[1]; 20 nM ABP 2,-0.3117 and -0.1898 and -0.2661 and -0.1946 and -0.1687
same,Log2 reporter intensity values: USP15,[2]; 20 nM ABP 2 alone,1.045 and 1.025 and 1.159
same,Log2 reporter intensity values,[2]; 20 nM ABP 2,0.06335 and 0.03549 and 0.2127 and 0.04463 and 0.02465 and 0.1586
same,Log2 reporter intensity values: PSMD14,[4]; 20 nM ABP 2 alone,0.9494 and 1.033 and 1.015
same,Log2 reporter intensity values,[4]; 20 nM ABP 2,-0.07484 and 0.0464 and 0.02103 and -0.05321 and 0.03002 and 0.01203
same,"Log2 reporter intensity values, COPS5","[5]; 20 nM ABP 2 (10 min), no competitor, All values",0.09368 and -0.02632 and 0.2453
same,"Log2 reporter intensity values, COPS5","[5]; 20 nM ABP 2 (10 min), no competitor, DMSO subtracted",0.1518 and 0.03179 and 0.3034
same,Log2 reporter intensity values: COPS5,[5]; 20 nM ABP 2 alone,1.111 and 1.022 and 1.234
same,Log2 reporter intensity values,"[5]; 20 nM ABP 2, DMSO subtracted",0.1518 and 0.03179 and 0.3034 and 0.1109 and 0.0222 and 0.2339
same,Log2 t-test Difference,[5]; ABP 2 - 20 nM,0.1623
